The record followed here is patent publication US11419857B2, “Methods and compositions for treating pain” (Apkarian Technologies LLC, priority 2015, dated 2022).

This assay concerns iSPNs in NAc shell slices. Briefly: Whole-cell patch-clamp recording of iSPN excitability in NAc shell slices, drugs bath applied. Type of assay: cell-based, mice. The method, then:
Current clamp recordings were performed to quantify firing properties.
Sulpiride and Bicifadine were obtained from Tocris. CBR12909 was obtained from Sigma-Aldrich. Drugs were bath applied for at least 15 min to establish equilibrium in the tissue.
In general terms: Patch clamp records ionic current or voltage across a cell membrane.

In the case of `Cc1ccc(C23CNCC2C3)cc1` (stereo not drawn) [bicifadine], the “excitability of iSPNs” value (slices from SNI mice, bath application 20 μM) is reported as “decreased the excitability of iSPNs”.

As for `CCN1CCCC1CNC(=O)c1cc(S(N)(=O)=O)ccc1OC` (stereo not drawn) [sulpiride], the “excitability of iSPNs” value (brain slices from sham mice, 5 μM) is reported as “increased the excitability of iSPNs” and the “excitability of iSPNs” value (slices from SNI mice, 5 μM) is given as “no detectable change in iSPNs excitability”.
